Results on 13 compounds are retold here after ChEMBL document CHEMBL2062511, “Synthesis and anti-HIV activities of symmetrical dicarboxylate esters of dinucleoside reverse transcriptase inhibitors” (Bioorg Med Chem Lett, 2012).

For orientation: EC50 means the midpoint of the concentration-response curve.

The nature of data set [1]: Therapeutic index, ratio of TC50 for human PBMC to EC50 for HIV-1 subtype B US/92/727 infected in PBMC. To be noted: uninfected and infected with HIV-1 subtype B US/92/727, read-out: TI.
Data set [2] is described as follows: Therapeutic index, ratio of TC50 for human CEM-SS cells to EC50 for HIV-1 subtype 3B infected in CEM-SS cells. The data set is classed as cell-based. To be noted: uninfected and infected with HIV-1 subtype 3B, read-out: TI.
Data set [3] can be described thus: Cytotoxicity against human CEM-SS cells by XTT method. The data set is classed as cell-based. To be noted: read-out: TC50 (the source's name). (In general: Formazan colour is commonly taken as a measure of viable cells.)
Data set [4] relates to Human immunodeficiency virus 1. As to the kind of experiment: Antiviral activity against HIV-1 subtype 3B infected in CEM-SS cells assessed as inhibition of viral replication after 6 days by XTT assay. The following applies: Human immunodeficiency virus 1, subtype 3B, 144 h. The data set is classed as functional, organism-based.
Data set [5] relates to Human immunodeficiency virus 1. As to the kind of experiment: Antiviral activity against HIV-1 subtype B US/92/727 infected in PBMC assessed as inhibition of viral replication after 7 days by XTT assay. The data set is classed as functional, organism-based. To be noted: Human immunodeficiency virus 1, subtype B US/92/727, 168 h.
The nature of data set [6]: Cytotoxicity against human PBMC. The data set is classed as cell-based. To be noted: read-out: TC50 (the source's name).
In data set [7] the test system is Human immunodeficiency virus 1. As to the kind of experiment: Ratio of FLT EC50 to compound EC50 for HIV-1 subtype 3B infected in CEM-SS cells. It is filed as functional.
The subject of data set [8] is Human immunodeficiency virus 1. As to the kind of experiment: Ratio of FLT EC50 to compound EC50 for HIV-1 subtype B US/92/727 infected in PBMC. The data set is classed as functional.
Data set [9] relates to Human immunodeficiency virus 1. As to the kind of experiment: Ratio of 3TC EC50 to compound EC50 for HIV-1 subtype B US/92/727 infected in PBMC. The data set is classed as functional.
Data set [10] concerns Human immunodeficiency virus 1. As to the kind of experiment: Ratio of 3TC EC50 to compound EC50 for HIV-1 subtype 3B infected in CEM-SS cells. It is filed as functional.
Data set [11] concerns Human immunodeficiency virus 1. As to the kind of experiment: Ratio of AZT EC50 to compound EC50 for HIV-1 subtype B US/92/727 infected in PBMC. It is filed as functional.

With `Nc1ccn([C@@H]2CS[C@H](CO)O2)c(=O)n1` [LAMIVUDINE], the selectivity ratio in data set [1] was over 5.6; in [2], over 2.5. Moreover, the CC50 in data set [3] and in data set [6] was over 500 nM each time. Moreover, the results for the concentration giving a half-maximal response (EC50) in data set [4] and in [5] were 200 nM and 90 nM, respectively.

`Cc1cn([C@H]2C[C@H](F)[C@@H](COC(=O)CCCCCCCCC(=O)OC[C@H]3O[C@@H](n4cc(C)c(=O)[nH]c4=O)C[C@@H]3F)O2)c(=O)[nH]c1=O`: the selectivity ratio in data set [1] is over 1000; in data set [2], over 250. Further, the CC50 in data set [3] and in data set [6] was over 1000 nM in each case. Further, the EC50 in [4] came out at 4 nM; in [5], 1 nM. Further, the “Ratio EC50” value in data set [7] amounted to 5.

As to `Cc1cn([C@H]2C[C@H](N=[N+]=[N-])[C@@H](COC(=O)CCCCCCCCC(=O)OC[C@H]3O[C@@H](n4cc(C)c(=O)[nH]c4=O)C[C@@H]3N=[N+]=[N-])O2)c(=O)[nH]c1=O`, the figures for the selectivity ratio in data set [1] and in [2] were over 250 and over 200, respectively. Also, the CC50 in [3] and in data set [6] was over 1000 nM each time. In addition, the EC50 in [4] was 5 nM; in [5], 4 nM.

For the compound `Cc1cn([C@H]2C[C@H](F)[C@@H](COC(=O)CCCCCCCCCCCCC(=O)OC[C@H]3O[C@@H](n4cc(C)c(=O)[nH]c4=O)C[C@@H]3F)O2)c(=O)[nH]c1=O`, the results for the selectivity ratio in data set [1] and in data set [2] were over 1320 and over 333, respectively. In addition, the CC50 in [3] and in [6] was over 1000 nM in each case. Besides, the half-maximal effective concentration (EC50) in data set [4] is 3 nM; in [5], 0.76 nM. Moreover, the entries for the “Ratio EC50” value in data set [8] and in data set [7] were 2 and 5, respectively.

Take `Cc1cn([C@H]2C[C@H](F)[C@@H](COC(=O)CCCCCCCCCCC(=O)OC[C@H]3O[C@@H](n4cc(C)c(=O)[nH]c4=O)C[C@@H]3F)O2)c(=O)[nH]c1=O`: the figures for the selectivity ratio in [1] and in data set [2] were over 1030 and over 250, respectively. In addition, the CC50 in [3] and in data set [6] was over 1000 nM throughout. Also, the half-maximal effective concentration (EC50) in data set [4] turned out to be 4 nM; in data set [5], 0.97 nM. In addition, the results for the “Ratio EC50” value in data set [8] and in [7] were 2 and 5, respectively.

For the compound `Cc1cn([C@H]2C[C@H](N=[N+]=[N-])[C@@H](CO)O2)c(=O)[nH]c1=O` [ZIDOVUDINE], the figures for the selectivity ratio in data set [1] and in data set [2] were over 125 and over 250, respectively. The values for the CC50 in [3] and in [6] were over 500 nM and over 1000 nM, respectively. Further, the figures for the EC50 in [4] and in data set [5] were 2 nM and 8 nM, respectively.

As to `Nc1ccn([C@@H]2CS[C@H](COC(=O)CCCCCCCCCCCCC(=O)OC[C@@H]3O[C@H](n4ccc(N)nc4=O)CS3)O2)c(=O)n1`, the selectivity ratio in [1] is over 33; in [2] it was over 333. Further, the “Ratio EC50” value in data set [9] and in data set [10] was 3 each time. In addition, the CC50 in data set [3] and in [6] was over 1000 nM in each case. For the same compound, the concentration giving a half-maximal response (EC50) came out at 3 nM in [4] and 30 nM in data set [5].

Take `Nc1ccn([C@@H]2CS[C@H](COC(=O)CCC(=O)OC[C@@H]3O[C@H](n4ccc(N)nc4=O)CS3)O2)c(=O)n1`: the selectivity ratio is over 7 in [1] and over 7.7 in data set [2]. Moreover, the CC50 in data set [3] and in data set [6] was over 1000 nM each time. Also, the EC50 came to 130 nM in data set [4] and 150 nM in [5].

As to `Nc1ccn([C@@H]2CS[C@H](COC(=O)CCCCCCCCC(=O)OC[C@@H]3O[C@H](n4ccc(N)nc4=O)CS3)O2)c(=O)n1`, the selectivity ratio is over 17 in data set [1] and over 33 in [2]. Moreover, the “Ratio EC50” value in data set [9] and in data set [10] was 1.5 throughout. In addition, the CC50 in data set [3] and in data set [6] was over 1000 nM in each case. Further, the half-maximal effective concentration (EC50) in [4] came to 30 nM; in data set [5], 60 nM.

As for `Cc1cn([C@H]2C[C@H](F)[C@@H](CO)O2)c(=O)[nH]c1=O` [ALOVUDINE], the selectivity ratio was over 250 in data set [1] and over 25 in data set [2]. The “Ratio EC50” value in data set [11] amounted to 45; in [7], 4. Besides, the CC50 in [3] and in [6] was over 500 nM in each case. The 50% effective concentration (EC50) in data set [4] was 20 nM; in [5], 2 nM.

As to `Cc1cn([C@H]2C[C@H](N=[N+]=[N-])[C@@H](COC(=O)CCCCCCCCCCC(=O)OC[C@H]3O[C@@H](n4cc(C)c(=O)[nH]c4=O)C[C@@H]3N=[N+]=[N-])O2)c(=O)[nH]c1=O`, the values for the selectivity ratio in [1] and in data set [2] were over 500 and over 250, respectively. The CC50 in [3] and in [6] was over 1000 nM each time. For the same compound, the 50% effective concentration (EC50) in [4] amounted to 4 nM; in data set [5] it was 2 nM.

Regarding `Nc1ccn([C@@H]2CS[C@H](COC(=O)CCCCCCCCCCC(=O)OC[C@@H]3O[C@H](n4ccc(N)nc4=O)CS3)O2)c(=O)n1`, the results for the selectivity ratio in data set [1] and in data set [2] were over 50 and over 333, respectively. In addition, the CC50 in data set [3] and in data set [6] was over 1000 nM each time. The figures for the 50% effective concentration (EC50) in data set [4] and in data set [5] were 9 nM and 20 nM, respectively.

Regarding `Cc1cn([C@H]2C[C@H](N=[N+]=[N-])[C@@H](COC(=O)CCCCCCCCCCCCC(=O)OC[C@H]3O[C@@H](n4cc(C)c(=O)[nH]c4=O)C[C@@H]3N=[N+]=[N-])O2)c(=O)[nH]c1=O`, the selectivity ratio in data set [1] and in data set [2] was over 333 each time. The CC50 in data set [3] and in data set [6] was over 1000 nM throughout. In addition, the EC50 in data set [4] and in data set [5] was 3 nM in each case.
